Experimental data from patent publication US9302999B2, “Substituted triazoles as herbicides” (E. I. DU PONT DE NEMOURS AND COMPANY, priority 2012, dated 2016).
Like-named read-outs stand apart in the source and are kept apart here.

Key:
Format in all cases: in vivo
[1] = system: velvetleaf (Abutilon theophrasti); test: Test C pre-/postemergence: velvetleaf
Procedure, shortened: (§1)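 Preemergence on seeds in loam/sand, postemergence on 2–18 cm (1–4-leaf) plants in peat-based medium; compounds in non-phytotoxic solvent with surfactant. After 13–15 days in greenhouse, visual rating versus controls, 0 (no effect) to 100 (complete control).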

wild oat (Avena fatua) = test: Test C pre-/postemergence: wild oat
Procedure, shortened: as §1

[2] = system: galium (catchweed bedstraw, Galium aparine); test: Test C pre-/postemergence: galium
Procedure, shortened: as §1

rice (Oryza sativa) = test: Test B flooded paddy: rice; conditions: Flood; 250 g ai/ha; applied to paddy water at 2-leaf stage; visually evaluated after 13 to 15 days
Procedure, shortened: (§2)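 Plants were grown to the 2-leaf stage, then pots were flooded to 3 cm above the soil and compounds were applied directly into the paddy water. Water depth was held for the whole test; after 13 to 15 days in a greenhouse, injury was visually rated against untreated controls (0 = no effect, 100 = complete control).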

[3] = system: velvetleaf (Abutilon theophrasti); test: Test A pre-/postemergence: velvetleaf; conditions: for pest or weed control at 125 g/ha / pest or weed control at 500 g/ha: Abutilon theophrasti, 240 h
Procedure, shortened: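 Rating scale 0–100 (100 = complete control), visual, ~10 days after application in the greenhouse. Applications: preemergence directed soil spray; postemergence at 1–2 leaves.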

[4] = system: pigweed (Amaranthus retroflexus); test: Test C pre-/postemergence: pigweed
Procedure, shortened: as §1

[5] = system: winter wheat (Triticum aestivum); test: Test C pre-/postemergence: winter wheat
Procedure, shortened: as §1

[6] = system: nightshade (eastern black nightshade, Solanum ptycanthum); test: Test C pre-/postemergence: nightshade; conditions: Preemergence
Procedure, shortened: as §1

[7] = system: barnyardgrass (Echinochloa crus-galli); test: Test B flooded paddy: barnyardgrass; conditions: Flood; 250 g ai/ha; applied to paddy water at 2-leaf stage; visually evaluated after 13 to 15 days
Procedure, shortened: as §2

[8] = system: foxtail, green (green foxtail, Setaria viridis); test: Test C pre-/postemergence: foxtail, green
Procedure, shortened: as §1

[9] = Postemergence, 31 g ai/ha, scale 0 to 100 (0 no effect, 100 complete control)
[10] = Postemergence, 62 g ai/ha, scale 0 to 100 (0 no effect, 100 complete control)
[11] = Postemergence, 125 g ai/ha, scale 0 to 100, 0 no effect, 100 complete control
[12] = Postemergence, 250 g ai/ha, scale 0 to 100 (0 no effect, 100 complete control)
[13] = Preemergence, 31 g ai/ha, scale 0 (no effect) to 100 (complete control)
[14] = Preemergence, 62 g ai/ha, scale 0 to 100, 0 no effect, 100 complete control
[15] = Preemergence, 125 g ai/ha, scale 0 to 100, 0 no effect, 100 complete control
[16] = Preemergence, 250 g ai/ha, scale 0 to 100, 0 no effect, 100 complete control
[17] = 125 g ai/ha, scale 0 to 100, 0 no effect, 100 complete control
[18] = 250 g ai/ha, scale 0 to 100, 0 no effect, 100 complete control
[19] = Postemergence, 250 g ai/ha, scale 0 to 100
[20] = Preemergence, 31 g ai/ha, scale of 0 to 100, 0 is no effect, 100 is complete control
[21] = Preemergence, 62 g ai/ha, scale of 0 to 100, 0 is no effect, 100 is complete control

For `CCOc1nn(-c2ccc(F)cc2)nc1Cc1ccnc(C(F)(F)F)c1` [Compound 196, 4-[[5-ethoxy-2-(4-fluorophenyl)-2H-1,2,3-triazol-4-yl]methyl]-2-(trifluoromethyl)pyridine], the “Plant response rating, Velvetleaf” value [1, 9] was 55, the “Plant response rating, Velvetleaf” value [1, 10] was 65 and the “Plant response rating, Velvetleaf” value [1, 11] was 75. For the same compound, the “Plant response rating, Velvetleaf” value [1, 12] was 80, the “Plant response rating, Velvetleaf” value [1, 13] was 60 and the “Plant response rating, Velvetleaf” value [1, 14] was 70. For the same compound, the “Plant response rating, Velvetleaf” value [1, 15] was 80, the “Plant response rating, Velvetleaf” value [1, 16] was 100 and the “Plant response rating, Oat, Wild” value (wild oat (Avena fatua); [9]) was 55. For the same compound, the “Plant response rating, Oat, Wild” value (wild oat (Avena fatua); [10]) was 85, the “Plant response rating, Oat, Wild” value (wild oat (Avena fatua); [11]) was 85 and the “Plant response rating, Oat, Wild” value (wild oat (Avena fatua); [12]) was 90. The “Plant response rating, Oat, Wild” value (wild oat (Avena fatua); [13]) was 80, the “Plant response rating, Oat, Wild” value (wild oat (Avena fatua); [14]) was 90 and the “Plant response rating, Oat, Wild” value (wild oat (Avena fatua); [15]) was 90. The “Plant response rating, Oat, Wild” value (wild oat (Avena fatua); [16]) was 90, the “Plant response rating, Galium” value [2, 9] was 80 and the “Plant response rating, Galium” value [2, 10] was 85. The “Plant response rating, Galium” value [2, 11] was 90, the “Plant response rating, Galium” value [2, 12] was 95 and the “Plant response rating, Galium” value [2, 13] was 85. For the same compound, the “Plant response rating, Galium” value [2, 14] was 95, the “Plant response rating, Galium” value [2, 15] was 98 and the “Plant response rating, Galium” value [2, 16] was 100. The “Plant response rating, Rice (0 to 100 scale, 0 is no effect, 100 is complete control)” value (rice (Oryza sativa)) was 70, the pest or weed control at 125 g/ha ([3]; post-emergence, Postemergence, 125 g ai/ha, 0 to 100 scale, 0 is no effect, 100 is complete control, read-out: Plant response rating, Velvetleaf) was 100% and the pest or weed control at 500 g/ha ([3]; post-emergence, Postemergence, 500 g ai/ha, 0 to 100 scale, 0 is no effect, 100 is complete control, read-out: Velvetleaf plant response rating) was 100%. For the same compound, the pest or weed control at 125 g/ha ([3]; pre-emergence, Preemergence, 125 g ai/ha, 0 to 100 scale where 0 is no effect and 100 is complete control, read-out: Plant response rating, Velvetleaf) was 80%, the pest or weed control at 500 g/ha ([3]; pre-emergence, Preemergence, 500 g ai/ha, 0 to 100 scale (0 no effect, 100 complete control), read-out: Plant response rating, Velvetleaf) was 100% and the “Plant response rating, Pigweed” value [4, 9] was 98. The “Plant response rating, Pigweed” value [4, 10] was 98, the “Plant response rating, Pigweed” value [4, 11] was 98 and the “Plant response rating, Pigweed” value [4, 12] was 98. For the same compound, the “Plant response rating, Pigweed” value [4, 13] was 95, the “Plant response rating, Pigweed” value [4, 14] was 98 and the “Plant response rating, Pigweed” value [4, 15] was 98. The “Plant response rating, Pigweed” value [4, 16] was 98, the “Plant response rating, Wheat” value [5, 9] was 15 and the “Plant response rating, Wheat” value [5, 10] was 35. For the same compound, the “Plant response rating, Wheat” value [5, 11] was 45, the “Plant response rating, Wheat” value [5, 12] was 45 and the “Plant response rating, Wheat” value [5, 13] was 0. The “Plant response rating, Wheat” value [5, 14] was 15, the “Plant response rating, Wheat” value [5, 15] was 40 and the “Plant response rating, Wheat” value [5, 16] was 50. The “Plant response rating, Nightshade” value ([6]; 31 g ai/ha, scale 0 (no effect) to 100 (complete control)) was 100, the “Plant response rating, Nightshade” value ([6]; 62 g ai/ha, scale 0 to 100, 0 no effect, 100 complete control) was 100 and the “Plant response rating, Nightshade” value [6, 17] was 100. For the same compound, the “Plant response rating, Nightshade” value [6, 18] was 100, the “Plant response rating, Barnyardgrass (0 to 100 scale, 0 is no effect, 100 is complete control)” value [7] was 85 and the “Plant response rating, Foxtail, Green” value [8, 9] was 100. For the same compound, the “Plant response rating, Foxtail, Green” value [8, 10] was 100, the “Plant response rating, Foxtail, Green” value [8, 11] was 100 and the “Plant response rating, Foxtail, Green” value [8, 12] was 100. For the same compound, the “Plant response rating, Foxtail, Green” value [8, 13] was 90, the “Plant response rating, Foxtail, Green” value [8, 14] was 90 and the “Plant response rating, Foxtail, Green” value [8, 15] was 90. The “Plant response rating, Foxtail, Green” value [8, 16] was 90.

In the case of `Cc1nn(-c2ccc(C(F)(F)F)c(F)c2)nc1Oc1ccnc(C(F)(F)F)c1` [Compound 148], the “Plant response rating, Velvetleaf” value [1, 9] is reported as 50, the “Plant response rating, Velvetleaf” value [1, 10] is reported as 50 and the “Plant response rating, Velvetleaf” value [1, 11] is reported as 80. The “Plant response rating, Velvetleaf” value [1, 19] was 85, the “Plant response rating, Velvetleaf” value [1, 20] was 15 and the “Plant response rating, Velvetleaf” value [1, 21] was 55. The “Plant response rating, Velvetleaf” value [1, 15] was 70, the “Plant response rating, Velvetleaf” value [1, 16] was 80 and the “Plant response rating, Oat, Wild” value (wild oat (Avena fatua); [9]) was 15. The “Plant response rating, Oat, Wild” value (wild oat (Avena fatua); [10]) was 45, the “Plant response rating, Oat, Wild” value (wild oat (Avena fatua); [11]) was 80 and the “Plant response rating, Oat, Wild” value (wild oat (Avena fatua); [19]) was 90. For the same compound, the “Plant response rating, Oat, Wild” value (wild oat (Avena fatua); [20]) was 35, the “Plant response rating, Oat, Wild” value (wild oat (Avena fatua); [21]) was 85 and the “Plant response rating, Oat, Wild” value (wild oat (Avena fatua); [15]) was 85. For the same compound, the “Plant response rating, Oat, Wild” value (wild oat (Avena fatua); [16]) was 85, the “Plant response rating, Galium” value [2, 9] was 80 and the “Plant response rating, Galium” value [2, 10] was 90. For the same compound, the “Plant response rating, Galium” value [2, 11] was 90, the “Plant response rating, Galium” value [2, 19] was 90 and the “Plant response rating, Galium” value [2, 20] was 80. The “Plant response rating, Galium” value [2, 21] was 100, the “Plant response rating, Galium” value [2, 15] was 100 and the “Plant response rating, Galium” value [2, 16] was 100. The “Plant response rating, Rice (0 to 100 scale, 0 is no effect, 100 is complete control)” value (rice (Oryza sativa)) was 45, the “Plant response rating, Velvetleaf” value ([3]; Postemergence, 125 g ai/ha, 0 to 100 scale, 0 is no effect, 100 is complete control) was 100 and the “Plant response rating, Velvetleaf” value ([3]; Preemergence, 125 g ai/ha, 0 to 100 scale where 0 is no effect and 100 is complete control) was 20. The “Plant response rating, Velvetleaf” value ([3]; Preemergence, 500 g ai/ha, 0 to 100 scale (0 no effect, 100 complete control)) was 70, the “Plant response rating, Pigweed” value [4, 9] was 65 and the “Plant response rating, Pigweed” value [4, 10] was 98. For the same compound, the “Plant response rating, Pigweed” value [4, 11] was 98, the “Plant response rating, Pigweed” value [4, 19] was 98 and the “Plant response rating, Pigweed” value [4, 20] was 100. For the same compound, the “Plant response rating, Pigweed” value [4, 21] was 100, the “Plant response rating, Pigweed” value [4, 15] was 100 and the “Plant response rating, Pigweed” value [4, 16] was 100. The “Plant response rating, Wheat” value [5, 9] was 20, the “Plant response rating, Wheat” value [5, 10] was 25 and the “Plant response rating, Wheat” value [5, 11] was 40. For the same compound, the “Plant response rating, Wheat” value [5, 19] was 40, the “Plant response rating, Wheat” value [5, 21] was 5 and the “Plant response rating, Wheat” value [5, 15] was 30. The “Plant response rating, Wheat” value [5, 16] was 35, the “Plant response rating, Nightshade” value ([6]; 31 g ai/ha, scale of 0 to 100, 0 is no effect, 100 is complete control) was 25 and the “Plant response rating, Nightshade” value ([6]; 62 g ai/ha, scale of 0 to 100, 0 is no effect, 100 is complete control) was 60. The “Plant response rating, Nightshade” value [6, 17] was 85, the “Plant response rating, Nightshade” value [6, 18] was 85 and the “Plant response rating, Barnyardgrass (0 to 100 scale, 0 is no effect, 100 is complete control)” value [7] was 65. The “Plant response rating, Foxtail, Green” value [8, 9] was 80, the “Plant response rating, Foxtail, Green” value [8, 10] was 98 and the “Plant response rating, Foxtail, Green” value [8, 11] was 100. For the same compound, the “Plant response rating, Foxtail, Green” value [8, 19] was 100, the “Plant response rating, Foxtail, Green” value [8, 20] was 95 and the “Plant response rating, Foxtail, Green” value [8, 21] was 95. The “Plant response rating, Foxtail, Green” value [8, 15] was 95 and the “Plant response rating, Foxtail, Green” value [8, 16] was 95.
